Data published in patent publication US9657073B2, “Inhibitors of Bcl-2” (Case Western Reserve University, priority 2010, dated 2017).

Tests used:
[1] = tested on: RS11846 cells; experiment: Single cell digital imaging of intracellular Ca2+ (Fura-2); format: cell-based, human; settings: RS11846, FIG. 6
Description: (§1) WEHI7.2 cells were cultured in DMEM supplemented with 10% fetal calf serum, L-glutamine (2 mM), and nonessential amino acids (100 μM). Transfections of WEHI7.2 cells with expression vectors encoding wild type Bcl-2 and Bcl-2RS/GG were described previously. Jurkat cells and RS11846 cells were cultured in RPMI medium supplemented with 10% fetal bovine serum, L-glutamine (2 mM), and nonessential amino acids (100 μM). Cells were maintained in 5% carbon dioxide at high humidity.
(§2) Methods of Ca^2+ imaging, described in detail previously, were employed here with only minor modification. Briefly, cells adhered to poly-L-lysine-coated coverslips (35-mm coverslip dishes, MatTek Corp., Ashland, Mass.) were loaded with 1 μM Fura-2 AM for 45 min at 25° C. in extracellular buffer (ECB) (130 mM NaCl, 5 mM KCl, 1.5 mM CaCl2, 1 mM MgCl2, 25 mM Hepes, pH 7.5, 1 mg/ml BSA, and 5 mM glucose). The buffer was replaced with fresh ECB and the incubation continued for […] at 25° C. to permit de-esterification. Culture dishes were mounted on the non-heated stage of an inverted microscope (Olympus CKX41) equipped with a 20× Fluor objective. Excitation light was alternated between 340 and 380 nm by a filter wheel (Sutter Instrument Co.), with 0.8 sec and 0.2 sec exposure times respectively, and emitted light was filtered at >510 nm and collected with an intensified charge-coupled device camera (Cooke 12 bit VGA). The video signal was digitized using InCyt Im2 software (Intracellular Imaging) and subsequently processed using Microsoft Excel. To determine Rmin cells were perfused with ECB deficient in Ca^2+ and supplemented with 4 mM EGTA and 10 μM ionomycin. Rmax was obtained by perfusing cells with ECB supplemented with 4 mM CaCl2 and 10 μM ionomycin. […] In most experiments peptides were fused with the cell penetrating peptide of HIV TAT to facilitate uptake by cells. In some experiments peptides, without linkage to TAT, were delivered into cells using Chariot reagent (Active Motif) as previously described. Xestospongin C (Enzo Life Sciences International) and U73122 (Sigma), both dissolved in DMSO, were added to cells 30 mM prior to Ca^2+ measurements.

[2] = tested on: Jurkat cells; experiment: as above; format: cell-based, human; settings: 10 μM peptide, Jurkat, FIG. 5
Description: as §1, §2

[3] = tested on: wild type DT40 cells; experiment: as above; format: cell-based; settings: 5 μM peptide, DT40 expressing all three IP3R isoforms, FIG. 8B
Description: as §2, with “In some experiments peptides, without linkage to TAT, were delivered into cells using Chariot reagent (Active Motif) as previously described. Xestospongin C (Enzo Life Sciences International) and U73122 (Sigma), both dissolved in DMSO, were added to cells 30 mM prior to Ca^2+ measurements.” left out

[4] = tested on: triple IP3R knockout DT40 cells; experiment: as above; format: cell-based; settings: 5 μM peptide, TKO DT40, FIG. 8C
Description: as §2, with “In some experiments peptides, without linkage to TAT, were delivered into cells using Chariot reagent (Active Motif) as previously described. Xestospongin C (Enzo Life Sciences International) and U73122 (Sigma), both dissolved in DMSO, were added to cells 30 mM prior to Ca^2+ measurements.” left out

[5] = tested on: primary CLL cells; experiment: as above; format: cell-based, human; settings: 10 μM peptide
Description: (§3) Lymphocytes were freshly separated from heparinized peripheral blood obtained from normal adult volunteers or adult patients with chronic lymphocytic leukemia (CLL) meeting standard diagnostic guidelines. Patients had either never received treatment or had received treatment over two years prior to obtaining samples. We conformed to all guidelines and regulations in accordance with Internal Review Board protocols ICC2902/11-02-28 (Case Western Reserve University Cancer Center/University Hospitals of Cleveland Ireland Cancer Center). Cells were separated by centrifugation through Ficoll-Hypaque and suspended in RPMI medium supplemented with 10% fetal bovine serum, L-glutamine (2 mM), and nonessential amino acids (100 μM) at a density of 2 million cells/ml. Normal CD19+ B cells were pooled from healthy individuals between 26 and 32 years of age, in accordance with IRB-approval (as above). Mononuclear cells were separated by Ficoll-Hypaque centrifugation, and further isolation of B and T cells was achieved by magnetic separation using CD19 microbeads (Miltenyi Biotec, Bergisch Gladbach, Germany).
as §2

[6] = tested on: multiple myeloma cells; experiment: Killing of multiple myeloma cells; format: cell-based; settings: FIG. 17
[7] = tested on: primary CLL cells; experiment: Apoptosis and cell death assays (trypan blue, propidium iodide, Hoechst nuclear morphology, Annexin V); format: cell-based, human; settings: 24 hr
Description: as §3, with “Patients had either never received treatment or had received treatment over two years prior to obtaining samples.” left out
Apoptosis was quantified according to apoptotic nuclear morphology and by detection of phosphatidylserine exposure on the plasma membrane. […] Images were obtained using a chargecoupled device camera (Hamamatsu Photonics, Shizuoka, Japan) and digitally converted by Simple PCI software (Hamamatsu Photonics). Membrane translocation of phosphatidylserine was detected by Annexin V staining. Annexin V-positive cells were assessed by flow cytometry using an ARIA flow cytometer (Beckman Coulter, Pasadena, Calif., USA). All flow cytometry data were analyzed using FlowJo 8.8.4 for Macintosh (Treestar, Ashland, Oreg., USA). Dead cells were identified according to their inability to exclude trypan blue dye or propidium iodide. Trypan blue dye uptake into cells was detected by light microscopy using a 40× objective and quantified by counting up to 400 cells. Propidium iodide uptake was quantified by flow cytometry in association with the Annexin V measurement described above.

TAT-IDPDD/AA: TAT-IDP analogue; DD/AA substitution eliminates the predicted aspartyl protease cleavage site (RKKRRQRRRGGNVYTEIKCNSLLPLAAIVRV)
activity (Ca2+ oscillations) compared to TAT-IDP [1]: increased activity
amplitude and frequency of Ca2+ oscillations compared with TAT-IDP [2]: much higher
induction of Ca2+ oscillations [3]: induced Ca^2+ oscillations
induction of Ca2+ oscillations compared with wild type DT40 [4]: significantly less
CLL cells with one or two high amplitude spikes associated with prolonged basal Ca2+ elevation ([5]; 90 min): 28±5%
CLL cells with prolonged Ca2+ oscillations without baseline Ca2+ elevation ([5]; 90 min): 6±2%
CLL cells with relatively brief burst of Ca2+ oscillations associated with prolonged basal Ca2+ elevation ([5]; 90 min): 17±4%
amplitude of Ca2+ peaks compared to TAT-IDP ([5]; FIG. 10): significantly higher
CLL cells with Ca2+ elevation ([5]; recordings typically 90 min, FIG. 9): 51 ±5%
killing of multiple myeloma cells [6]: kills multiple myeloma cells
apoptosis induction in CLL cells ([7]; 10 μM peptide, Figs. 12-15): substantial apoptosis
sensitivity of CLL cells to apoptosis induction relative to normal peripheral blood lymphocytes ([7]; propidium iodide exclusion by flow cytometry, FIG. 16): over 6 fold
